In patent US7968535B2, “Use of azapaullones for preventing and treating pancreatic autoimmune disorders” (Develogen Atkiengesellschaft, priority 2005, dated 2011):

Columns and labels:
INS-1E cells [1] = experiment: Glucolipotoxicity induced apoptosis of INS-1E cells (overall assessment); assay type: cell-based, rat; details: palmitate and glucose, 24 hours
Experimental: The effects of the substance on cell viability, cell growth and specific apoptotic events such as caspases activity and DNA-fragmentation was monitored. INS-1E cell apoptosis was induced by treatment of cell cultures with toxic concentrations of glucose and palmitate for 24 hours. The substance of interest was added to the medium 1 hour prior to the addition of the toxic agents.
The effects of the test compounds on beta cell function were assessed using biological assays monitoring cellular metabolic activity as well as specific apoptotic events in Ins-1E cells.
(§1) 10,000 Ins-1E cells were seeded per 96-well (black 96-well tissue culture plates, Falcon #353948) in 100 μl culture medium (RPMI 1640 containing 11 mM glucose, 5% FCS, 10 mM HEPES, 50 μM 2-mercaptoethanol, 1 mM MEM sodium pyruvate, 100 U/ml penicillin, 100 μg/ml streptomycin) and cultivated at 37° C., 5% CO2 in humidified atmosphere for 3 days. Media was changed to 100 μl starvation medium (culture medium with only 5 mM glucose, 1% FCS) and the cells were re-incubated for 1 day. Then media was exchanged to starvation medium containing test substances.
Apoptosis of Ins-1E cells was induced by addition of a combination of BSA coupled palmitate and glucose (pal/gluc) or a combination of cytokines (cyt) 1 hour after starting the treatment with test substances: pal/gluc: 0.3 mM palmitate:BSA (palmitic acid sodium salt:fatty acid free BSA 6:1) and 25 mM glucose. 10×cyt: 0.04 ng/ml IL-1β and 1 ng/ml IFNγ. The cells were further incubated with test substances and apoptotic inducer for 24 hours.

Pax4 gene = experiment: Pax4 transcription by quantitative real time RT-PCR; assay type: cell-based, rat
Experimental: FIG. 11 illustrates a representative experiment in which the relative Pax4 levels were quantified using quantitative real time RT-PCR. […] Data are presented as relative levels to the basal Pax4 expression level in INS-1E cells only treated with the vehicle (Co.). Activin-A (1 nM) treated INS-1E cells serve as a positive control.
The response of the Pax4 gene to test compounds was investigated in the rat insulinoma cell line INS-1E. INS-1E cells are known to express Pax4 and to upregulate Pax4 levels in response to the treatment with activin-A and betacellulin. In the search for novel beta cell mitogens and/or beta cell protective agents the inventors treated INS-1E cells with test compound 10c. Compound 10c induces the relative Pax4 expression about 5-fold compared to the control and compared to 1 nM activin A (FIG. 11).
INS-1E cells were cultured as described (Merglen, (2004) Endocrinology; 145: 667-678). Cells were seeded at a density of 2×10^4 cells per cm^2 6 to 8 days before the treatment with chemicals. During the growth period the medium was changed once. […]
Total RNA from 8×10^4 cells growing on 4 cm^2 surface area of a tissue culture dish was extracted using Qiagen RNAeasy kit according to the instructions of the manufacturer (Qiagen) and 2 μg was converted into cDNA. […] Quantitative real-time PCR was performed using Applied Biosystems SDS 7000 detection system. […]

INS-1E cells [2] = experiment: Ins-1E cell proliferation assay (BrdU incorporation); assay type: cell-based, rat; details: maximum at 1 μM
Experimental: The proliferation rate of Ins-1E cells was determined by monitoring DNA synthesis using a 5-bromo-2′-deoxyuridine (BrdU) incorporation assay. BrdU is a halogenated nucleotide analogue of thymidine that is incorporated into DNA during the S-phase of the cell cycle. Pulse-labeling of DNA with BrdU and subsequent immunohistochemical detection of labeled nuclei was used to study the rate of cell proliferation. The treatment of INS-1E cells with 4-Azakenpaullone for 24 hours increases BrdU incorporation of Ins-1E cells in a concentration dependent manner, reaching a maximum of about 1.4 fold between 5 μM and 10 μM 4-AKP.
The proliferation of Ins-1E insulinoma cells was determined by monitoring DNA synthesis as an indirect parameter of cell proliferation. The incorporation of the thymidine analogue 5-bromo-2′-deoxyuridine (BrdU) during replication into cellular DNA was used to label the DNA of mitotically active cells. After its incorporation into DNA, BrdU was detected by immunoassay.
as §1, with “substances and the cells were further incubated for 24 h. For the last 4 hours BrdU was added to reach a concentration of 10 μM. Cell proliferation ELISA (Cell Proliferation ELISA, BrdU, chemiluminescence, Roche, cat. No. 1669915) was performed according to the manufacturers guidelines.” for “substances.”

[3] = target: T1, cyclin dependent kinase 1 (Homo sapiens, UniProt P06493); experiment: IC50 Profiler Express kinase assay; assay type: biochemical
T1 construct: purchased Upstate Ltd. (IC50 Profiler Express service)
Experimental: (§2) Experiments were carried out by Upstate Ltd. according to the protocols described in KinaseProfiler™ Assay Protocols, IC50 Profiler Express™ (10-point curves in duplicate) Fall 2004 by Ustate Cell Signaling solutions.

human GSK3 = experiment: IC50 Profiler Express kinase assay; assay type: biochemical; details: 10-point curves in duplicate
Experimental: as §2

T1 sequence (P06493 whole entry, species assumed): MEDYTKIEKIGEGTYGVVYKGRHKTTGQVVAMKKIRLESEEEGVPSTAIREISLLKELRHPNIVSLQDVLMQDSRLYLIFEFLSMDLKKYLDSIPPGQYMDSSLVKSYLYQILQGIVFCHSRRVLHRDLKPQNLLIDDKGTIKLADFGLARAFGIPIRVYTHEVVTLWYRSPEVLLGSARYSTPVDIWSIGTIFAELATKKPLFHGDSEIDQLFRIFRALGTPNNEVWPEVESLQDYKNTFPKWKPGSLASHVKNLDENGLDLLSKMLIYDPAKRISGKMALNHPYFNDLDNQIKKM
T1 sequence (P14635 whole entry partner, species assumed): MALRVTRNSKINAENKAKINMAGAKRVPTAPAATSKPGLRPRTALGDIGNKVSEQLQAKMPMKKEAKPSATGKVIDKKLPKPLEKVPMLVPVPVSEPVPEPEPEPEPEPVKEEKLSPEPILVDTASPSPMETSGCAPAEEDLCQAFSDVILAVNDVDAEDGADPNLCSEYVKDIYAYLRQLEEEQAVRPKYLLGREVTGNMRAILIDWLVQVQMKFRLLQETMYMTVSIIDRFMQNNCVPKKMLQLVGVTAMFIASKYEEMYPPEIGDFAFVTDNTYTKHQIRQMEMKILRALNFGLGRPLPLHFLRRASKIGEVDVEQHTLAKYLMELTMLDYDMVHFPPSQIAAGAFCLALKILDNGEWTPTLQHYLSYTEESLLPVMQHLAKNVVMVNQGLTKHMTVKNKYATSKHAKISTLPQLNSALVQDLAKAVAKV

For `N#Cc1ccc2[nH]c3c(c2c1)CC(=O)Nc1cccnc1-3` [Compound 10c, 6-Oxo-5,6,7,12-tetrahydropyrido[3′,2′:2,3]azepino[4,5-b]indole-9-carbonitrile], the “effect on glucolipotoxicity induced apoptosis” value (INS-1E cells [1]) was “strongly antagonizes glucolipotoxicity induced apoptosis”, the Pax4 gene transcription (Pax4 gene; 2 μM) was “transiently induce Pax4 gene transcription” and the “relative Pax4 expression compared to the control” value (Pax4 gene; INS-1E cells, vehicle control) was “about 5 fold”. For the same molecule, the “BrdU incorporation relative to untreated controls (maximum)” value (INS-1E cells [2]) was “about 1.5 fold”, the “affinity to CDK1 relative to 1-Azakenpaullone” value [3] was “higher affinity to CDK1 than the reference compound 1-Azakenpaullone” and the “inhibition of the enzymatic activity of cyclin dependent kinase 1” value ([3]; compared with GSK3) was “comparatively higher concentration of this inhibitor are required”. For the same molecule, the “inhibition of human GSK3” value (human GSK3) was “potent inhibitor”.
